Experimental data reported in PMC10326086 (Cancer Chemotherapy and Pharmacology, 2023).
Like-named read-outs stand apart in the source and are kept apart here.

Columns and labels:
[1] = system: QTcF interval in patients with advanced solid tumors; settings: human, in vivo
From the text: Estimates were made of the mean change in QTcF at the geometric mean Cmax on days 1 and 3 from the fitted model, with corresponding 90% two-sided confidence intervals (CIs).

[2] = Plasma pharmacokinetics of adavosertib
[3] = system: ECG intervals in patients with advanced solid tumors; settings: human, in vivo
Method: (§1) On day − 2, patients underwent dECG to determine eligibility by central review. On day − 1, baseline dECG assessments were performed at clock times matched to the planned/scheduled dECG assessment times on days 1 and 3. […] Doses were administered under fasting conditions (2 h pre-dose to 2 h post-dose), with prescribed anti-emetic(s) given orally 30 min prior to each dose [20].
(§2) Patients had their final dECG/PK assessments on day 4, 24 h post-dose. Baseline for dECG assessments was defined as the time-matched observation on day − 1. Triplicate dECG recordings were taken within an approximate 5-min period prior to PK sample collection and as close to the scheduled times as possible. Patients rested for ≥ 10 min prior to dECG recording and were in the same supine body position for all recordings. HR and RR, QT, PR, and QRS interval parameters were recorded. Standardized equipment was provided by the central ECG laboratory. Recorded dECGs were sent to the central ECG laboratory for review and interpretation, using their standard operating procedures and with manual adjudication (3 beat on lead II).

[4] = system: patients with advanced solid tumors; settings: human, in vivo
From the text: (§3) Safety was appraised throughout the study by the assessment of adverse events (AEs; graded by Common Terminology Criteria for Adverse Events [CTCAE], version 4.03), physical examination, and evaluation of vital signs, ECG, and laboratory data (clinical chemistry and hematology). Dose reductions were not allowed.

[5] = parameters: method as in doi:10.1158/1538-7445.am2019-ct012; settings: after 200 mg bid dosing; cited from earlier work
patients = system: patients; parameters: method as in AstraZeneca, data on file, 2022; settings: preliminary data; ref AstraZeneca, data on file, 2022; cited from earlier work
[6] = system: patients with advanced solid tumors; settings: cited from earlier work
[7] = system: patients with advanced solid tumors; assay: Safety and tolerability (adverse events, CTCAE version 4.03); settings: n = 21
From the text: as §3

[8] = system: ECG intervals in patients with advanced solid tumors; assay: Digital 12-lead ECG (dECG) assessments, time-matched change from baseline; settings: over the treatment period (days 1–3, 24 h post-dose)
Method: as §1, §2

QTc interval = settings: in vivo; cited from earlier work
[9] = human, in vivo, 225 mg, 2.5 days

With `C=CCn1c(=O)c2cnc(Nc3ccc(N4CCN(C)CC4)cc3)nc2n1-c1cccc(C(C)(C)O)n1` [adavosertib] the “Day effect estimate, concentration–ΔQTcF model” value [1] was −1.6, the “Intercept estimate, concentration–ΔQTcF model” value [1] was −2.4 and the “Upper limits of predicted 90% CIs for ΔQTcF, sensitivity analysis” value [1] was under 1.5 ms. For the same molecule, the “CLss/F, arithmetic mean (SD)” value ([2]; day 3) was 43.2 L/h, the “CLss/F, median” value ([2]; day 3) was 41.5 L/h and the “AUC0–12, median” value ([2]; human, in vivo) was 5.383 µM·h. The “Cavg, arithmetic mean (SD)” value ([2]; human, in vivo) was 944.8 nM, the “Cavg, geometric mean” value ([2]; human, in vivo) was 901.2 nM and the “Cavg, median” value ([2]; human, in vivo) was 898.9 nM. The “Cmin, arithmetic mean (SD)” value ([2]; human, in vivo) was 517.7 nM, the “Cmin, geometric mean” value ([2]; human, in vivo) was 410.4 nM and the “Cmin, median” value ([2]; human, in vivo) was 499.0 nM. For the same molecule, the Tmax ([2]; human, in vivo) was 3 h, the “tmax, median” value ([2]; human, in vivo) was 2.5 h and the “Accumulation for AUC0–12 over 2.5 days of bid dosing” value [2, 9] was “approximately 2.3 fold”. The “Accumulation for Cmax over 2.5 days of bid dosing” value [2, 9] was about 2.1 fold, the AUC(0-t) ([2]; human, in vivo, AUC0–12, arithmetic mean (SD)) was 11.3 µM·h and the AUC(0-t) ([2]; human, in vivo, AUC0–12, median) was 10.6 µM·h. It also gave a Cmax ([2]; human, in vivo, arithmetic mean (SD)) of 1500 nM, a Cmax ([2]; human, in vivo, median) of 1520 nM and an AUC(0-t) ([2]; human, in vivo, po, 225 mg, AUC0–12, geometric mean) of 4.94 µM·h. For the same molecule, the “Mean change in HR, range over time points” value ([3]; 1 day) was “− 1.7 to 2.9”, the “Mean change in PR interval, range over time points” value ([3]; 1 day) was “− 4.4 to 3.5” and the “Mean change in QRS interval, range over time points” value ([3]; 1 day) was “− 1.2 to 1.4”. For the same molecule, the “Mean change in RR interval, range over time points” value ([3]; 1 day) was “− 38.0 to 22.3”, the “Patients with QTcF increase > 60 ms at any time during treatment” value ([3]; 1 day) was 0 n (%) and the “Patients with QTcF value > 450 ms and increase > 30 ms” value ([3]; 1 day) was 0 n (%). For the same molecule, the “Patients with QTcF value > 450 ms at any time during treatment” value ([3]; 1 day) was 0 n (%), the “Patients with QTcF value > 480 ms at any time during treatment” value ([3]; 1 day) was 0 n (%) and the “Patients with QTcF value > 500 ms and increase > 60 ms” value ([3]; 1 day) was 0 n (%). The “Patients with QTcF value > 500 ms at any time during treatment” value ([3]; 1 day) was 0 n (%), the “Mean change in HR, range over time points” value ([3]; 3 day) was 1.4 to 9.5 bpm and the “Mean change in PR interval, range over time points” value ([3]; 3 day) was “− 4.4 to 0.3”. The “Mean change in QRS interval, range over time points” value ([3]; 3 day) was “− 1.8 to − 2.0”, the “Mean change in RR interval, range over time points” value ([3]; 3 day) was “− 102.5 to − 30.4” and the “Patients with QTcF increase > 30 ms at any time during treatment” value ([3]; 3 day) was 1 (4.8) n (%). The “Patients with QTcF increase > 60 ms at any time during treatment” value ([3]; 3 day) was 0 n (%), the “Patients with QTcF value > 450 ms and increase > 30 ms” value ([3]; 3 day) was 0 n (%) and the “Patients with QTcF value > 450 ms at any time during treatment” value ([3]; 3 day) was 0 n (%). For the same molecule, the “Patients with QTcF value > 480 ms at any time during treatment” value ([3]; 3 day) was 0 n (%), the “Patients with QTcF value > 500 ms and increase > 60 ms” value ([3]; 3 day) was 0 n (%) and the “Patients with QTcF value > 500 ms at any time during treatment” value ([3]; 3 day) was 0 n (%). For the same molecule, the “Causally related AEs of any grade: Anemia” value [4] was 1 (4.8) Number of patients (%), the “Causally related AEs of any grade: Constipation” value [4] was 1 (4.8) Number of patients (%) and the “Causally related AEs of any grade: Decreased appetite” value [4] was 1 (4.8) Number of patients (%). The “Causally related AEs of any grade: Diarrhea” value [4] was 6 (28.6) Number of patients (%), the “Causally related AEs of any grade: Vomiting” value [4] was 2 (9.5) Number of patients (%) and the “Causally related grade ≥3 AEs: Anemia” value [4] was 1 (4.8) Number of patients (%). For the same molecule, the “Causally related grade ≥3 AEs: Constipation” value [4] was 0 Number of patients (%), the “Causally related grade ≥3 AEs: Decreased appetite” value [4] was 0 Number of patients (%) and the “Causally related grade ≥3 AEs: Diarrhea” value [4] was 1 (4.8) Number of patients (%). The “Causally related grade ≥3 AEs: Nausea” value [4] was 1 (4.8) Number of patients (%), the “Causally related grade ≥3 AEs: Vomiting” value [4] was 1 (4.8) Number of patients (%) and the “Causally related AEs of any grade: Any AE” value ([4]; 2.5 days) was 11 (52.4) Number of patients (%). For the same molecule, the “Causally related AEs of any grade: Nausea” value ([4]; 2.5 days) was 6 (28.6) Number of patients (%), the “Causally related grade ≥3 AEs: Any AE” value ([4]; 2.5 days) was 2 (9.5) Number of patients (%) and the “Patients who discontinued treatment because of AEs” value ([4]; 2.5 days) was 9.5%. For the same molecule, the “Patients with AEs” value ([4]; 2.5 days) was 76.2%, the “Patients with CTCAE grade 3 anemia” value ([4]; 2.5 days) was 4.8% and the “Patients with CTCAE grade 3 diarrhea” value ([4]; 2.5 days) was 4.8%. For the same molecule, the “Patients with CTCAE grade 3 hypotension” value ([4]; 2.5 days) was 4.8%, the “Patients with CTCAE grade 3 nausea” value ([4]; 2.5 days) was 4.8% and the “Patients with a serious AE (vomiting, not considered drug related)” value ([4]; 2.5 days) was 4.8%. The “Patients with diarrhea (any causality)” value ([4]; 2.5 days) was 33.3%, the “Patients with nausea (any causality)” value ([4]; 2.5 days) was 33.3% and the “Patients with treatment-related AEs” value ([4]; 2.5 days) was 52.4%. The “Patients with treatment-related anemia” value ([4]; 2.5 days) was 4.8%, the “Patients with treatment-related constipation” value ([4]; 2.5 days) was 4.8% and the “Patients with treatment-related decreased appetite” value ([4]; 2.5 days) was 4.8%. The “Patients with treatment-related diarrhea” value ([4]; 2.5 days) was 28.6%, the “Patients with treatment-related nausea” value ([4]; 2.5 days) was 28.6% and the “Patients with treatment-related vomiting” value ([4]; 2.5 days) was 9.5%. For the same molecule, the “Patients with vomiting (any causality)” value ([4]; 2.5 days) was 23.8%, the “Total number of treatment-related AEs” value ([4]; 2.5 days) was 17 and the “AUC0–12” value [5] was 8.1 µM·h. The “Adverse drug reactions to adavosertib monotherapy” value (patients) was “include QTc prolongation”, the “Dose proportionality of exposure” value ([6]; qd dosing, between 200 and 300 mg, single and multiple doses, preliminary) was “exposure increased more than dose proportionally” and the Maximum tolerated dose ([6]; twice daily (bid) over 2.5 days per week per 21-day cycle) was 225 mg. The “AEs with an outcome of death” value [7] was “No AEs with an outcome of death”, the “Patients with QTcF > 450 ms” value [8] was “No patient” and the “Patients with increase in QTcF of > 60 ms” value [8] was “No patient”.
In the case of `CN[C@H]1CC[C@@H](c2ccc(Cl)c(Cl)c2)c2ccccc21` [sertraline], the “Risk of TdP” value (QTc interval) is listed as “conditional risk of TdP”.
